pIC50: −log10 of the molar value.
How the values were obtained:
[1] = test system: H1N1 A/New Caledonia/20/99; experiment: microbe, parasite or virus in culture; format: cell-based, influenza A virus
[2] = test system: H1N1 A/California/07/09; experiment: microbe, parasite or virus in culture; format: cell-based, influenza A virus; conditions: for EC50: Influenza A virus, H1N1, MDCK, 96 h, read-out: Virus neutralization assay (VNA), pEC50 H1N1 A/California/07/09 (converted)
[3] = target: HA H1 A/New Caledonia/20/99 (Influenza A virus (A/New Caledonia/20/1999(H1N1)), UniProt Q6WG00); experiment: biochemical; conditions: Competition binding (AlphaLISA), pIC50 H1 A/New Caledonia/20/99
[4] = target: HA H1 A/California/07/09 (Influenza A virus (A/California/07/2009(H1N1)), UniProt C3W5X2); experiment: biochemical; conditions: Competition binding (AlphaLISA), pIC50 H1 A/California/07/09
[5] = test system: H1N1 A/PR/8/34-MA; experiment: microbe, parasite or virus in culture; format: cell-based, influenza A virus
[6] = test system: H5N1 A/Vietnam/1203/04; experiment: microbe, parasite or virus in culture; format: cell-based, influenza A virus; conditions: 96 h, average of repeats; for Virus neutralization assay (VNA), pEC50 H5N1 A/Vietnam/1203/04: MDCK cells, CPE by ATPlite; for EC50: Influenza A virus, H5N1, MDCK, read-out: Virus neutralization assay (VNA), pEC50 H5N1 A/Vietnam/1203/04, MDCK cells, 96 h, CPE by ATPlite (converted)
[7] = test system: MDCK cells; conditions: dog
[8] = target: HA H5 A/Vietnam/1203/04 (Influenza A virus (A/Vietnam/1203/2004(H5N1)), UniProt Q5EP31); experiment: biochemical; conditions: Competition binding (AlphaLISA), pIC50 H5 A/Vietnam/1203/04

| SMILES | Virus neutralization assay (VNA), pEC50 H1N1 A/New Caledonia/20/99 [1] | Virus neutralization assay (VNA), pEC50 H1N1 A/California/07/09 [2] | pIC50 [3] | pIC50 [4] | Virus neutralization assay (VNA), pEC50 H1N1 A/PR/8/34-MA [5] | Virus neutralization assay (VNA), pEC50 H5N1 A/Vietnam/1203/04 [6] | Cytotoxicity (pCC50) MDCK [7] | pIC50 [8] | EC50 ([1]; Influenza A virus, H1N1, MDCK, 96 h, read-out: Virus neutralization assay (VNA), pEC50 H1N1 A/New Caledonia/20/99 (converted)) [nM] | EC50 [2] [nM] | EC50 [6] [nM] |
| --- | --- | --- | --- | --- | --- | --- | --- | --- | --- | --- | --- |
| COC(=O)[C@@H](c1ccccc1)N1CCN(C(=O)c2cccc(-c3nc4ccc(OC)cc4s3)c2)CC1 [Example 22] | 6.9 | 6.8 | 7.90 | 7.80 | 6.9 | 5.8 | <4.3 |  |  |  |  |
| Cc1nnc([C@@H](c2ccccc2)N2CCN(C(=O)c3cccc(-c4nc5cc(C(F)(F)F)ccc5o4)c3)CC2)o1 [Example 69] | 6.2 | 6.4 | 7.10 | 7.20 |  | 4.5 | 5.0 | 5.60 |  |  |  |
| COc1ccc2nc(-c3cccc(C(=O)N4CCN(C(C(C)=O)c5ccccc5)CC4)c3)sc2c1 (stereo not shown) [Example 106] |  |  | 6.70 | 6.40 |  |  | 4.4 | 5.70 | 1000 | 3160 | > 50100 |
| COC(=O)C(c1ccccc1)N1CCN(C(=O)c2cccc(-c3ccc(OC)cc3)c2)CC1 (stereo not shown) [Example 128] | 5.7 |  | 6.80 | 6.60 |  |  | <4.3 | 5.50 |  | 3160 | 10000 |

From US11040963B2 (priority 2017, dated 2021)
